Test results as given in patent publication US6645513B2, “Treatment of skin with adenosine or adenosine analog” (University of Massachusetts, priority 1998, dated 2003).
Values joined by “and” are separate entries in the source; they are usually repeats but may differ in a detail not shown here. Equal values may be shown once. Marks after values point to notes of the source that are not given here.

Assays:
Assay type in all cases: cell-based
human skin fibroblasts [1] = test: [3H]phenylalanine incorporation (index of protein synthesis) in human skin fibroblasts; details: 10^-4 M, 48 h
Procedure: FIGS. 2A and 2B are histograms showing concentration responses of adenosine-stimulated protein synthesis in human skin fibroblasts from a young (FIG. 2A) and aged (FIG. 2B) donor. Cells were grown to 75% confluence. Medium was then replaced with serum-free medium with or without adenosine. After 48 hours, [^3H]phenylalanine incorporation was determined as described. Results are expressed as %[^3H]phenylalanine incorporation compared to control cultures without adenosine and are means ±SEM for 6-25 experiments. […] Incorporation of [^3H]phenylalanine was measured as an index of protein synthesis. Human skin fibroblasts were seeded into 24-well culture plates in MEM containing 10% FBS. When cells had grown to approximately 75% confluence the culture medium was replaced with serum-free MEM with or without adenosine. After 48 hours, 2 μCi/ml [^3H]phenylalanine was added to the cultures. Unlabeled phenylalanine (0.36 mM) was also added to equalize concentrations of intracellular and extracellular phenylalanine. […] The radioactivity of this fraction was determined by standard liquid scintillation spectrometric techniques. Incorporation of [^3H] phenylalanine was expressed as cpm of ^3H per culture well and data in each experiment were derived from six identically treated wells.

human skin fibroblasts [2] = test: Determination of cell size by forward light scatter (FACS); details: for % increase (cell size) / Relative Size (FLS): adenosine 10^-4 M, 18 h; for increase of cell size: 10^-4 M
Procedure: Human fibroblasts in MEM 10% FBS were seeded into 25 cm^2 culture flasks at a density of 1×10^4 cells/cm^2. When the cells had grown to approximately 80% confluence the culture medium was removed and the cells were incubated in serum-free MEM for 24 hours. Adenosine or vehicle (MEM) was added for 18 hours and cells were then washed twice with cold (4° C.) HBSS. Cells were removed with 0.25% trypsin in calcium-and magnesium-free MEM and diluted in cold (4° C.) HBSS for measurement of relative cell size with a fluorescence-activated cell sorter (FACS; Becton Dickinson Vantage). Cell size was determined by forward light scatter on a minimum of 1×10^4 cells per experiment. The effect of adenosine on cell size was determined on human skin fibroblasts from young and aged donors by measuring forward light scatter in a FACS analyzer. Cultures made quiescent by serum removal were exposed to adenosine for 18 hours, removed by trypsinization, and diluted in 4° C. HBSS. A minimum of 1×10^4 cells were measured for each experiment. Values are mean ±SEM for relative cell size determined by forward light scatter (FLS) in a fluorescence-activated cell sorter, and n=number of cells measured.

[3] = test system: human lung fibroblasts (IMR-90); test: [3H]thymidine incorporation in human lung fibroblasts (IMR-90); details: IMR-90 lung fibroblasts
Procedure: FIGS. 1A and 1B are histograms showing the effect of adenosine on [^3H]thymidine incorporation in cultures of normal human skin (FIG. 1A) and lung fibroblasts (FIG. 1B). After incubation in serum-free medium for 24 hours, cells were exposed to 10^−4 M adenosine for 18 hours. Medium was replaced with serum-free medium without adenosine, and [^3H]thymidine was added. Results are expressed as percent [^3H]thymidine incorporation compared to control cultures without adenosine and are means ±SEM for 4-5 experiments.
(§1) Human skin fibroblasts and human lung fibroblasts were supplied by the N.I.A. Aging Culture Repository Center (Camden, N.J.). For skin fibroblasts, primary cultures had been initiated from explants obtained from a 3 mm punch biopsy of the mesial aspect of the upper left arm. Human lung fibroblasts (IMR-90) were established from a […] normal […] fetus.
Cells were grown in Eagle's minimal essential medium (MEM) supplemented with 10% fetal bovine serum (FBS), 100 U/ml penicillin and […] streptomycin in a 37° C., 5% CO2/95% air environment. […]
As an index of DNA synthesis incorporation of [^3H]thymidine was measured as described in Ethier et al., Am. […] The radioactivity of this fraction was determined by standard liquid scintillation spectrometric techniques.
Incorporation of [^3H] thymidine was expressed as counts per minute (cpm) of ^3H per culture. […]

human skin fibroblasts [4] = test: [3H]thymidine incorporation (index of DNA synthesis) in human skin fibroblasts
Procedure: as §1
Cells were grown in Eagle's minimal essential medium (MEM) supplemented with 10% fetal bovine serum (FBS), 100 U/ml penicillin and […] streptomycin in a 37° C., 5% CO2/95% air environment. After reaching confluence, cells were subcultivated with 0.25% trypsin in MEM with no added Ca^2+ or Mg^2+.
As an index of DNA synthesis incorporation of [^3H]thymidine was measured as described in Ethier et al., Am. J. Physiol. 272:H1470-79 (1997). Confluent monolayers of human skin fibroblasts in MEM plus 10% FBS were seeded into 16 mm diameter culture wells (24-well plates) at a density of 1×10^4 cells/cm^2. Cells were grown at 37° C. under standard culture conditions (5% CO2-95% air) until they were approximately 75% confluent. Medium was then removed and the cells were made “serum-free” by incubation in MEM with no FBS for 24 hours. Adenosine or vehicle (MEM) was added for an additional 18 hours. This medium was then replaced with fresh MEM, and the cells were pulsed with […] [^3H] thymidine (6.7 Ci/mmol). After a 2 hour incubation period, the medium was discarded and the cells were rinsed twice with cold (4° C.) Hank's balanced salt solution (HBSS) and incubated for 5 minutes with 0.5 ml cold 10% (w/v) trichloroacetic acid (TCA). The wells were then rinsed with 8% TCA and the TCA-insoluble material was solubilized with 0.5 ml of a solution of 0.2M NaOH and 0.2% sodium […] sulfate (SDS). The radioactivity of this fraction was determined by standard liquid scintillation spectrometric techniques.
Incorporation of [^3H] thymidine was expressed as counts per minute (cpm) of ^3H per culture. Data in each experiment was derived from 4 identically treated wells.

Nc1ncnc2c1ncn2[C@@H]1O[C@H](CO)[C@@H](O)[C@H]1O [adenosine]
increase of protein synthesis ([3H]phenylalanine incorporation) (human skin fibroblasts [1]; skin fibroblasts from person (AG073060A), n=25): 13±4%
increase of protein synthesis ([3H]phenylalanine incorporation) (human skin fibroblasts [1]; skin fibroblasts from person three (AG11730), n=17): 13±6%
% increase (cell size) (human skin fibroblasts [2]; aged donor, experiment 1): 2.7* %
Relative Size (FLS) (human skin fibroblasts [2]; aged donor, experiment 1): 342 ± 0.75
% increase (cell size) (human skin fibroblasts [2]; aged donor, experiment 2): 4.3* %
Relative Size (FLS) (human skin fibroblasts [2]; aged donor, experiment 2): 337 ± 0.96
% increase (cell size) (human skin fibroblasts [2]; aged donor, experiment 3): 4.9* %
Relative Size (FLS) (human skin fibroblasts [2]; aged donor, experiment 3): 321 ± 0.81
increase of cell size (human skin fibroblasts [2]; skin fibroblasts from person (AG073060A), two of three experiments): 1.8% and 2.2%
increase of cell size (human skin fibroblasts [2]; skin fibroblasts from person three (AG11730), 3 of 3 experiments): 2.7-4.9%
% increase (cell size) (human skin fibroblasts [2]; young donor, experiment 1): 0.4%
Relative Size (FLS) (human skin fibroblasts [2]; young donor, experiment 1): 526 ± 0.55
% increase (cell size) (human skin fibroblasts [2]; young donor, experiment 2): 2.2* %
Relative Size (FLS) (human skin fibroblasts [2]; young donor, experiment 2): 326 ± 1.16
% increase (cell size) (human skin fibroblasts [2]; young donor, experiment 3): 1.8* %
Relative Size (FLS) (human skin fibroblasts [2]; young donor, experiment 3): 348 ± 0.95
effect on [3H]thymidine incorporation ([3]; adenosine 10^-4 M (FIG. 1B)): no effect
stimulation of [3H]thymidine incorporation ([3]; adenosine 10^-7 M to 10^-3 M (data not shown)): failed to stimulate
increase of [3H]thymidine incorporation (human skin fibroblasts [4]; human fibroblasts AG607720B made quiescent by serum removal, 10^-4 M adenosine, five studies (FIG. 1A)): 43±9%
peak stimulation of [3H]thymidine incorporation (human skin fibroblasts [4]; skin fibroblasts from person (AG07306A), 10^-4 M, n=6): 93±20%
increase of [3H]thymidine incorporation (human skin fibroblasts [4]; skin fibroblasts from person one, 10^-4 M): 53±31%
increase of [3H]thymidine incorporation (human skin fibroblasts [4]; skin fibroblasts from person three, 10^-4 M): 54±22%
effect on DNA synthesis ([3H]thymidine incorporation) (human skin fibroblasts [4]; skin fibroblasts from person two, 10^-4 M): no effect
